Data on one substance can be found in patent publication US20220133833A1, “USE OF GRAPE AND/OR SOY SUPPLEMENTS AGAINST COVID-19 AND 92 OTHER VIRUSES AND BACTERIA INCLUDING OTHER UNKNOWN VIRUSES AND BACTERIA” (priority 2020, published 2022).

Like-named read-outs stand apart in the source and are kept apart here.

The test system of the series is H1N1 virus.
Where [1] appears, read: one-week preventive treatment, 0.2 ml/0.4 ml/mouse iv/ip QD, till the end of the study.

For APOA-1 [RAAS-2], the “prevention of the Bird Flu Epidemiology in Mice” value (mice, H1N1) came to 100%. Under setting [1], the “protection from body weight loss” value is given as “totally protected” and the protection from death entry was “totally protected”. For the same substance, the “protection of body weight loss compared with oseltamivir treatment” value (preventive treatment) is “even better than that by oseltamivir treatment”. In addition, the “adverse finding / tolerance” value (therapeutic group (G2), some of the mice, day 5 post H1N1 challenge and afterward) is recorded as “haematuria”. Further, where the note is “therapeutic treatment, 0.2 ml/0.4 ml iv/ip QD, all 5 mice, days 2 to 5 post H1N1 infection”, the “protection from body weight loss” value is reported as “partial”. Where the note is “therapeutic treatment, 0.2 ml/0.4 ml iv/ip QD, group of 5 mice”, the “mice protected from death” value is “one mouse out of 5 mice”.
